From the NIST ThermoML archive (doi:10.1016/j.jct.2018.06.021)
± gives the expanded uncertainty stated by the source.

How the values were obtained:
[1] = wn = mass fraction of the nth substance listed; details: 101.3 kPa, Liquid, Vibrating tube method
[2] = 101.33 kPa, Liquid; for viscosity: Falling or rolling sphere viscometry; for mass density: Vibrating tube method

A mass density ([1]; 323.25 K, w2 = 0) of 988 ± 2 kg/m3 and a mass density ([1]; 333.35 K, w2 = 0) of 983.1 ± 2 kg/m3 were found for `O` [water] + OCCO in this work.

A mass density ([1]; 293.25 K, w1 = 1) of 1113.6 ± 2 kg/m3, a mass density ([1]; 293.45 K, w1 = 0.95) of 1109.3 ± 2 kg/m3 and a mass density ([1]; 303.15 K, w1 = 1) of 1106.5 ± 2 kg/m3 were found for `OCCO` [1,2-ethanediol] + O in this work. It also gave a mass density ([1]; 303.45 K, w1 = 0.95) of 1102.4 ± 2 kg/m3, a mass density ([1]; 313.15 K, w1 = 1) of 1099.2 ± 2 kg/m3 and a mass density ([1]; 323.25 K, w1 = 0.95) of 1088.3 ± 2 kg/m3. For the same compound, the mass density ([1]; 323.25 K, w1 = 1) was 1091.9 ± 2 kg/m3, the mass density ([1]; 333.25 K, w1 = 1) was 1084.6 ± 2 kg/m3 and the mass density ([1]; 333.35 K, w1 = 0.95) was 1081 ± 2 kg/m3.

A viscosity ([2]; 303.15 K) of 13.66 ± 0.56 mPa·s, a mass density ([2]; 303.15 K) of 1106.3 ± 2 kg/m3 and a viscosity ([2]; 308.15 K) of 11.32 ± 0.46 mPa·s were found for `OCCO` [1,2-ethanediol] in this work. For the same compound, the viscosity ([2]; 313.15 K) was 9.474 ± 0.39 mPa·s, the mass density ([2]; 313.15 K) was 1099.2 ± 2 kg/m3 and the viscosity ([2]; 318.15 K) was 8.016 ± 0.33 mPa·s. It also gave a viscosity ([2]; 323.15 K) of 6.849 ± 0.28 mPa·s, a mass density ([2]; 323.15 K) of 1092.1 ± 2 kg/m3 and a viscosity ([2]; 328.15 K) of 5.903 ± 0.24 mPa·s. The mass density ([2]; 328.15 K) was 1088.4 ± 2 kg/m3, the viscosity ([2]; 333.15 K) was 5.124 ± 0.21 mPa·s and the mass density ([2]; 333.15 K) was 1084.8 ± 2 kg/m3. For the same compound, the viscosity ([2]; 338.15 K) was 4.482 ± 0.18 mPa·s, the mass density ([2]; 338.15 K) was 1081.2 ± 2 kg/m3 and the viscosity ([2]; 343.15 K) was 3.946 ± 0.16 mPa·s. For the same compound, the mass density ([2]; 343.15 K) was 1077.5 ± 2 kg/m3, the viscosity ([2]; 348.15 K) was 3.496 ± 0.14 mPa·s and the mass density ([2]; 348.15 K) was 1073.7 ± 2 kg/m3. For the same compound, the viscosity ([2]; 353.15 K) was 3.112 ± 0.13 mPa·s and the mass density ([2]; 353.15 K) was 1070 ± 2 kg/m3.
